Ki data for 1 compound are collected here from BindingDB's records for doi:10.1021/jm201198w (University of Kentucky, 2012).

Structures are written as SMILES.

The assay has as its target Tyrosine-protein kinase SYK (Homo sapiens) (UniProt P43405). Description: Inhibition of SYK.

By Ki is commonly meant the equilibrium dissociation constant of an inhibitor or competing ligand from its target.

The compound `Nc1nc(Nc2ccc([C@H]3CC[C@H](N4CCOCC4)CC3)cc2)nn1-c1ccccn1` came in with an inhibition constant (Ki) of 220 nM. This lies in the sub-micromolar range.
